“And” between values parts separate entries of the source, which are not always exact repeats. Equal values may be shown once.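 Compound exposure: 48 hours, 5 concentrations, 96-well plates. GI50 = concentration required for 50% inhibition of growth. At the TGI there is no net growth.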
Each compound was assayed on MDA-MB-468 breast (assay: inhibition of tumour cell growth, NCI panel, 48 h).

`C=C(C)[C@@H]1CC[C@]2(COS(C)(=O)=O)CC[C@]3(C)[C@H](CC[C@@H]4[C@@]5(C)CCCNC(C)(C)[C@@H]5CC[C@]43C)[C@@H]12` and `C=C(C=O)[C@@H]1CC[C@]2(C)[C@H](CC=C3[C@H]4[C@@H](C)[C@H](C)CC[C@]4(C(=O)OC)CC[C@]32C)[C@@]1(C)CCC#N` are within 1.5-fold of each other in GI50: 1750 nM for the first, 1600 nM for the second.

Compared with `Cc1cc(N(CCCNc2ccnc3cc(Cl)ccc23)Cc2cccs2)nc(Cl)n1`, `O=C1CC(c2ccccc2)Cc2nc3ccc(Cl)cc3cc21` (configuration not stated) is 3.4-fold higher in GI50: 853 nM for the first, 2860 nM for the second.

Going from `Cc1cc(-c2ccccc2)c(C)n1Cc1ccc(Cl)cc1` to `Clc1ccccc1-c1nc2ccccc2[nH]1`, the GI50 rises from 1420 nM to 37000 nM (26-fold).

`COc1ccc(N2CCN(CC(=O)N3CCN(c4nnc(-c5ccccc5)c(-c5ccccc5)n4)CC3)CC2)cc1` and `CN1CCN(c2nc(-c3csc(-c4ccccc4)n3)cc3ccccc23)CC1` are within 1.5-fold of each other in GI50: 2440 nM for the first, 1740 nM for the second.

Compared with `COc1cc(Nc2ncc3c(n2)-c2ccc(Cl)cc2C(c2c(F)cccc2OC)=NC3)ccc1C(=O)O`, `COc1cc(C(=O)/C=C/c2c(-c3ccc(F)cc3)nc3sccn23)cc(OC)c1OC` is 62-fold higher in GI50: 45.6 nM for the first, 2810 nM for the second.

Compared with `COc1cc(C2c3cc4c(cc3C3OC(=O)C2C3CO)OCO4)cc(OC)c1OC` (configuration not stated), `COc1cc2c3c(cc4c5c(ccc4c3c1OC)OCO5)N(CCN(C)C)C2=O` is higher in GI50: under 10 nM for the first, 73.1 nM for the second.

`NC(=O)Nc1ccc2ncnc(Nc3ccc(Cl)cc3)c2c1` and `O=C(Cc1ccc(/C=C/C(=O)c2ncc[nH]2)cc1)Nc1ccc(Br)cc1` are within 1.5-fold of each other in GI50: 1430 nM for the first, 1420 nM for the second.

First: CC(C)(C)c1ccc(C(=O)N/N=C/c2ccc(O)cc2O)cc1
Second: O=C(c1ccc(O)cc1)c1ccc(C(=O)c2ccc(O)cc2)cc1
The GI50 of the first is 16-fold lower: 396 nM for the first, 6500 nM for the second.

First: COc1ccc(-c2nnc3n(C)c(=O)c4ccccc4n23)cc1O
Second: Nc1c(C(=O)Nc2cccc3ccccc23)sc2nc3c(cc12)CCCC3
The GI50 of the first is 3.7-fold higher: 1210 nM for the first, 327 nM for the second.

First: COCCNc1ccc2ncc(C#Cc3cncc(C(=O)Nc4ccc(CN5CCN(C)CC5)c(C(F)(F)F)c4)c3)n2n1
Second: Cc1ccc(C(=O)Nc2ccc(CN3CCN(C)CC3)c(C(F)(F)F)c2)cc1C#Cc1cncc2ncccc12
The GI50 of the first is 14-fold lower: 101 nM for the first, 1460 nM for the second.

Compared with `Cc1cc2nc3ccc(N=Nc4ccc(N(C)C)cc4)cc3n(-c3ccccc3)c-2cc1=N`, `c1ccc(-c2n(Cc3ccc4ccccc4n3)c3ccccc3[n+]2Cc2ccc3ccccc3n2)cc1` is 5.4-fold higher in GI50: 19.5 nM for the first, 105 nM for the second.

`O=C(O)c1cn(C2CC2)c2cc(N3CCN(S(=O)(=O)c4ccc(Cl)c(Cl)c4)CC3)c(F)cc2c1=O` and `O=C1C(N2CCN(c3ccccc3)CC2)=C(Cl)C(=O)c2ncccc21` are within 1.5-fold of each other in GI50: 2240 nM for the first, 1590 nM for the second.

First: C[C@@H]1CN(Cc2ccc(/C=C/c3n[nH]c4ccc5nc(-c6cn[nH]c6C(F)(F)F)c6c(c5c34)CCCC6)cc2)C[C@H](C)O1
Second: COc1ccc(/C=C/c2nc(N3CCOCC3)c3cc(F)c(F)cc3n2)cc1OC
The GI50 of the first is 7.9-fold higher: 5890 nM for the first, 748 nM for the second.

Going from `COC(=O)[C@]12CC[C@@H](C)[C@H](C)[C@@H]1C1=CC[C@@H]3[C@@]4(C)C(c5ncon5)=C[C@@](C)(CO)C4=CC[C@@]3(C)[C@]1(C)CC2` to `CC(C)[C@@H](C(=O)O[C@@H]1/C=C/C(=O)O[C@@H](C)CCC/C=C/[C@@H]2C[C@H](O)C[C@H]21)[N+](C)(C)C`, the GI50 rises from 1950 nM to over 100000 nM.

Going from `O=C1NC(=O)c2c1c1c3ccccc3ccc1c1[nH]c3ccc(Br)cc3c21` to `O=C1Nc2ccccc2C12CC(c1ccccc1)=NN2` (configuration not stated), the GI50 rises from 1560 nM to 6960 nM (4.5-fold).

First: COc1ccc(C(=O)Nc2ncc(Cc3ccc(F)cc3)s2)cc1
Second: COc1ccc2c(c1)c(CC(=O)[Se]CCC#N)c(C)n2C(=O)c1ccc(Cl)cc1
The GI50 of the first is 6.9-fold lower: 362 nM for the first, 2500 nM for the second.

First: Cc1cc(C)cc(Nc2nccc(-c3c(-c4ccc(F)cc4)ncn3C3CCNCC3)n2)c1
Second: Cn1cc(-c2csc(-c3cn(CCN4CCOCC4)c4ccc(F)cc34)n2)c2cccnc21
The GI50 of the first is 1.9-fold lower: 1140 nM for the first, 2200 nM for the second.

Compared with `Cc1cc[c-]cc1.Fc1c[c-]c(-c2ccccn2)c(F)c1.N#CCC[PH+](CCC#N)c1ccccc1.[Pt+2]`, `Oc1c(I)cc(I)cc1CNCCCN(Cc1ccccn1)Cc1ccccn1` is 2.9-fold lower in GI50: 2880 nM for the first, 1010 nM for the second.

Compared with `CCN(CC)c1ccc(/C=C/C(=O)c2cccc(NS(C)(=O)=O)c2)cc1`, `Cc1ccc2c(n1)C(=O)C(Cl)=C(Nc1cccc(C(C)C)c1)C2=O` is 3.2-fold lower in GI50: 3840 nM for the first, 1200 nM for the second.

`O=C1C2C(C(=O)[N]1[Hg][c]1ccccc1)C1(Cl)C(Cl)=C(Cl)C2(Cl)C1(Cl)Cl` (configuration not stated) and `c1ccc(Cn2cc3c(c2)-c2oncc2CC3)cc1` are within 1.5-fold of each other in GI50: 233 nM for the first, 331 nM for the second.

Compared with `NC1=CC(=O)C(=O)c2cccnc21`, `CCOC(=O)Nc1nc2c(F)c(F)c(F)cc2s1` is 5.1-fold higher in GI50: 10600 nM for the first, 53900 nM for the second.

First: COC(=O)Nc1nc2c(OC)c(OC)c(OC)cc2[nH]1
Second: O=C(Cc1ccccc1)Nc1nnc(CCSCCc2nnc(NC(=O)Cc3ccccc3)s2)s1
The GI50 of the first is 2.5-fold lower: 14300 nM for the first, 36000 nM for the second.

Going from `CC(=O)OC1CCC2(C)C(CCC3C2CCC2(C)C(C4=CC(=O)OC4)CCC32)C1` (configuration not stated) to `O=C1OCC2=C1C(c1cccc(F)c1)c1cc3c(cc1N2CCO)OCCO3` (configuration not stated), the GI50 falls from 5260 nM to 125 nM (42-fold).

`C=C(C)[C@@H]1CC[C@]2(COS(C)(=O)=O)CC[C@]3(C)[C@H](CC[C@@H]4[C@@]5(C)CCCNC(C)(C)[C@@H]5CC[C@]43C)[C@@H]12` and `C=C(C=O)[C@@H]1CC[C@]2(C)[C@H](CC=C3[C@H]4[C@@H](C)[C@H](C)CC[C@]4(C(=O)OC)CC[C@]32C)[C@@]1(C)CCC#N` are within 1.5-fold of each other in TGI: 3230 nM for the first, 3240 nM for the second.

Compared with `Cc1cc(N(CCCNc2ccnc3cc(Cl)ccc23)Cc2cccs2)nc(Cl)n1`, `O=C1CC(c2ccccc2)Cc2nc3ccc(Cl)cc3cc21` (configuration not stated) is higher in TGI: 5740 nM for the first, over 26100 nM for the second.

First: Cc1cc(-c2ccccc2)c(C)n1Cc1ccc(Cl)cc1
Second: Clc1ccccc1-c1nc2ccccc2[nH]1
The TGI of the first is lower: 7540 nM for the first, over 100000 nM for the second.

First: COc1ccc(N2CCN(CC(=O)N3CCN(c4nnc(-c5ccccc5)c(-c5ccccc5)n4)CC3)CC2)cc1
Second: CN1CCN(c2nc(-c3csc(-c4ccccc4)n3)cc3ccccc23)CC1
The TGI of the first is 3.2-fold higher: 12800 nM for the first, 4010 nM for the second.

`COc1cc(Nc2ncc3c(n2)-c2ccc(Cl)cc2C(c2c(F)cccc2OC)=NC3)ccc1C(=O)O` and `COc1cc(C(=O)/C=C/c2c(-c3ccc(F)cc3)nc3sccn23)cc(OC)c1OC` are within 1.5-fold of each other in TGI: 19900 nM for the first, 13600 nM for the second.

Going from `COc1cc(C2c3cc4c(cc3C3OC(=O)C2C3CO)OCO4)cc(OC)c1OC` (configuration not stated) to `COc1cc2c3c(cc4c5c(ccc4c3c1OC)OCO5)N(CCN(C)C)C2=O`, the TGI falls from over 100000 nM to 412 nM.

Compared with `NC(=O)Nc1ccc2ncnc(Nc3ccc(Cl)cc3)c2c1`, `O=C(Cc1ccc(/C=C/C(=O)c2ncc[nH]2)cc1)Nc1ccc(Br)cc1` is 2-fold lower in TGI: 8280 nM for the first, 4090 nM for the second.

Compared with `CC(C)(C)c1ccc(C(=O)N/N=C/c2ccc(O)cc2O)cc1`, `O=C(c1ccc(O)cc1)c1ccc(C(=O)c2ccc(O)cc2)cc1` is higher in TGI: 2240 nM for the first, over 100000 nM for the second.

Going from `COc1ccc(-c2nnc3n(C)c(=O)c4ccccc4n23)cc1O` to `Nc1c(C(=O)Nc2cccc3ccccc23)sc2nc3c(cc12)CCCC3`, the TGI rises from 14000 nM to over 100000 nM.

Compared with `COCCNc1ccc2ncc(C#Cc3cncc(C(=O)Nc4ccc(CN5CCN(C)CC5)c(C(F)(F)F)c4)c3)n2n1`, `Cc1ccc(C(=O)Nc2ccc(CN3CCN(C)CC3)c(C(F)(F)F)c2)cc1C#Cc1cncc2ncccc12` is 71-fold higher in TGI: 260 nM for the first, 18500 nM for the second.

Compared with `Cc1cc2nc3ccc(N=Nc4ccc(N(C)C)cc4)cc3n(-c3ccccc3)c-2cc1=N`, `c1ccc(-c2n(Cc3ccc4ccccc4n3)c3ccccc3[n+]2Cc2ccc3ccccc3n2)cc1` is 2.6-fold higher in TGI: 199 nM for the first, 512 nM for the second.

First: O=C(O)c1cn(C2CC2)c2cc(N3CCN(S(=O)(=O)c4ccc(Cl)c(Cl)c4)CC3)c(F)cc2c1=O
Second: O=C1C(N2CCN(c3ccccc3)CC2)=C(Cl)C(=O)c2ncccc21
The TGI of the first is 2.2-fold higher: 6890 nM for the first, 3160 nM for the second.

First: C[C@@H]1CN(Cc2ccc(/C=C/c3n[nH]c4ccc5nc(-c6cn[nH]c6C(F)(F)F)c6c(c5c34)CCCC6)cc2)C[C@H](C)O1
Second: COc1ccc(/C=C/c2nc(N3CCOCC3)c3cc(F)c(F)cc3n2)cc1OC
The TGI of the first is 2.8-fold higher: 22200 nM for the first, 8030 nM for the second.

First: COC(=O)[C@]12CC[C@@H](C)[C@H](C)[C@@H]1C1=CC[C@@H]3[C@@]4(C)C(c5ncon5)=C[C@@](C)(CO)C4=CC[C@@]3(C)[C@]1(C)CC2
Second: CC(C)[C@@H](C(=O)O[C@@H]1/C=C/C(=O)O[C@@H](C)CCC/C=C/[C@@H]2C[C@H](O)C[C@H]21)[N+](C)(C)C
The TGI of the first is lower: 3800 nM for the first, over 100000 nM for the second.

Going from `O=C1NC(=O)c2c1c1c3ccccc3ccc1c1[nH]c3ccc(Br)cc3c21` to `O=C1Nc2ccccc2C12CC(c1ccccc1)=NN2` (configuration not stated), the TGI rises from 3990 nM to over 100000 nM.

First: COc1ccc(C(=O)Nc2ncc(Cc3ccc(F)cc3)s2)cc1
Second: COc1ccc2c(c1)c(CC(=O)[Se]CCC#N)c(C)n2C(=O)c1ccc(Cl)cc1
The TGI of the first is higher: over 100000 nM for the first, 6930 nM for the second.

Compared with `Cc1cc(C)cc(Nc2nccc(-c3c(-c4ccc(F)cc4)ncn3C3CCNCC3)n2)c1`, `Cn1cc(-c2csc(-c3cn(CCN4CCOCC4)c4ccc(F)cc34)n2)c2cccnc21` is 3.1-fold higher in TGI: 2760 nM for the first, 8590 nM for the second.

First: Cc1cc[c-]cc1.Fc1c[c-]c(-c2ccccn2)c(F)c1.N#CCC[PH+](CCC#N)c1ccccc1.[Pt+2]
Second: Oc1c(I)cc(I)cc1CNCCCN(Cc1ccccn1)Cc1ccccn1
The TGI of the first is 3.9-fold higher: 9110 nM for the first, 2340 nM for the second.

First: CCN(CC)c1ccc(/C=C/C(=O)c2cccc(NS(C)(=O)=O)c2)cc1
Second: Cc1ccc2c(n1)C(=O)C(Cl)=C(Nc1cccc(C(C)C)c1)C2=O
The TGI of the first is higher: over 100000 nM for the first, 2610 nM for the second.

Compared with `O=C1C2C(C(=O)[N]1[Hg][c]1ccccc1)C1(Cl)C(Cl)=C(Cl)C2(Cl)C1(Cl)Cl` (configuration not stated), `NC1=CC(=O)C(=O)c2cccnc21` is 31-fold higher in TGI: 728 nM for the first, 22500 nM for the second.

`COC(=O)Nc1nc2c(OC)c(OC)c(OC)cc2[nH]1` and `CCOC(=O)Nc1nc2c(F)c(F)c(F)cc2s1` cannot be ordered by TGI: over 77300 nM for the first, over 100000 nM for the second.

First: CC(=O)OC1CCC2(C)C(CCC3C2CCC2(C)C(C4=CC(=O)OC4)CCC32)C1 (configuration not stated)
Second: O=C(Cc1ccccc1)Nc1nnc(CCSCCc2nnc(NC(=O)Cc3ccccc3)s2)s1
The TGI of the first is lower: 44900 nM for the first, over 100000 nM for the second.

With `CC1=C[C@H]2c3c(c(O)c(O)c4oc5cc(O)cc(O)c5c(=O)c34)[C@H](c3cc(O)c(O)c4oc5cc(O)cc(O)c5c(=O)c34)[C@H]2C(C)(C)C1` the GI50 was 2070 nM.

With `CC1=C[C@H]2c3c(c(O)c(O)c4oc5cc(O)cc(O)c5c(=O)c34)[C@H](c3cc(O)c(O)c4oc5cc(O)cc(O)c5c(=O)c34)[C@H]2C(C)(C)C1` the TGI was 5670 nM and 6250 nM.
